Reference: patent US8039420B2, “Fungicidal composition containing acid amide derivative” (Ishihara Sangyo Kaisha, Ltd., priority 2004, dated 2011)

Test system: Sphaerotheca fuliginea
Test: Test on Preventive Effect Against Cucumber Powdery Mildew
Details: 200 ppm, spray on cucumber (Sagamihanpaku) 1.5-leaf stage; area of sporulation 6 to 7 days after inoculation
Experimental: In each test, the controlling index was determined on the basis of the following standards:
Cucumber (cultivar: Sagamihanpaku) was cultivated in a plastic pot having a diameter of 7.5 cm, and when it reached 1.5-leaf stage, 10 ml of a chemical solution having the acid amide derivative of the formula (I) or a salt thereof adjusted to a prescribed concentration, was applied by a spray gun. After the chemical solution dried (the same day as the application or the next day), a suspension of conidia of Sphaerotheca fuliginea was sprayed and inoculated and maintained in a constant temperature chamber at 20° C. From 6 to 7 days after the inoculation, the area of sporulation was investigated, and the controlling index was determined in accordance with the above evaluation standards.

For `Cc1nn(C)c(Cl)c1C(=O)NC(C)(C)C(=O)c1ccccc1` [1-34], which controlling index is on record?
Its controlling index is 4 (Area of lesions, length of lesions, number of lesions or area of sporulation is less than 10% of non-treated plot).
